Data taken from ChEMBL document CHEMBL3044533, “Alkyl, aryl, alkylarylquinoline, and related alkaloids” (2007).
Values after ≈ are worked out from the molar mass of the structure shown.

Tests used:
Format in all cases: functional
[1] = tested on: Globisporangium ultimum; assay: Growth inhibition of Pythium ultimum at 10 ug/ml; details: read-out: GI
[2] = tested on: Xanthomonas campestris pv. oryzae; assay: Antibacterial activity against Xanthomonas campestris pv. oryzae
[3] = tested on: Gaeumannomyces graminis; assay: Growth inhibition of Gaeumannomyces graminis at 10 ug/ml; details: read-out: GI
[4] = tested on: Bipolaris oryzae; assay: Growth inhibition of Bipolaris oryzae at 10 ug/ml; details: read-out: GI
[5] = tested on: Rhizoctonia solani; assay: Growth inhibition of Rhizoctonia solani at 10 ug/ml; details: read-out: GI
[6] = tested on: Fusarium oxysporum; assay: Growth inhibition of Fusarium oxysporum at 10 ug/ml; details: read-out: GI
[7] = tested on: Verticillium dahliae; assay: Growth inhibition of Verticillium dahliae at 10 ug/ml; details: read-out: GI
[8] = tested on: Ralstonia solanacearum; assay: Antibacterial activity against Ralstonia solanacearum
[9] = tested on: Pectobacterium carotovorum; assay: Antibacterial activity against Pectobacterium carotovorum
[10] = tested on: Pyricularia oryzae; assay: Growth inhibition of Magnaporthe oryzae at 10 ug/ml; details: read-out: GI
[11] = tested on: Clavibacter michiganensis; assay: Antibacterial activity against Clavibacter michiganensis
[12] = tested on: Agrobacterium tumefaciens; assay: Antibacterial activity against Agrobacterium tumefaciens
[13] = tested on: Phomopsis obscurans; assay: Growth inhibition of Phomopsis obscurans at 30 uM after 48 hr by microtiter assay; details: Paraphomopsis obscurans, read-out: GI
[14] = tested on: Plasmopara viticola; assay: Growth inhibition of Plasmopara viticola at 30 uM after 48 hr by microtiter assay; details: read-out: GI
[15] = tested on: Colletotrichum acutatum; assay: Growth inhibition of Colletotrichum acutatum at 300 uM after 48 hr by microtiter assay; details: read-out: GI
[16] = tested on: Colletotrichum fragariae; assay: Growth inhibition of Colletotrichum fragariae at 300 uM after 48 hr by microtiter assay; details: read-out: GI
[17] = tested on: Colletotrichum gloeosporioides; assay: Growth inhibition of Colletotrichum gloeosporioides at 100 uM after 48 hr by microtiter assay; details: read-out: GI
[18] = tested on: Fusarium oxysporum; assay: Growth inhibition of Fusarium oxysporum at 300 uM after 48 hr by microtiter assay; details: read-out: GI
[19] = tested on: Phomopsis obscurans; assay: Growth inhibition of Phomopsis obscurans at 100 uM after 48 hr by microtiter assay; details: Paraphomopsis obscurans, read-out: GI

| SMILES | inhibition of growth at 10 µg/mL [1] [%] | MIC [2] [µg/mL] | inhibition of growth at 10 µg/mL [3] [%] | inhibition of growth at 10 µg/mL [4] [%] | inhibition of growth at 10 µg/mL [5] [%] | inhibition of growth at 10 µg/mL [6] [%] | inhibition of growth at 10 µg/mL [7] [%] | MIC [8] [µg/mL] | MIC [9] [µg/mL] | inhibition of growth at 10 µg/mL [10] [%] | MIC [11] [µg/mL] | MIC [12] [µg/mL] | inhibition of growth at 300 µM [15] [%] | inhibition of growth at 300 µM [16] [%] | inhibition of growth at 300 µM [18] [%] | other results |
| --- | --- | --- | --- | --- | --- | --- | --- | --- | --- | --- | --- | --- | --- | --- | --- | --- |
| CCCCCC/C=C/Cc1[nH]c2ccccc2c(=O)c1C | 0 | > 20 | 54.7 | 68 | 58.1 | 41.1 | 74.9 | > 20 | > 20 | 49.9 | 10 (≈ 35.3 µM) | > 20 | – | – | – | – |
| Cn1c(CCCCCCc2ccc3c(c2)OCO3)cc(=O)c2ccccc21 | – | – | – | – | – | – | – | – | – | – | – | – | 57 | 57 | – | inhibition of growth at 30 µM [13]: 100%; inhibition of growth at 30 µM [14]: 100%; inhibition of growth at 100 µM [17]: 67.7% |
| CCCCCCCCCc1cc(=O)c2ccccc2[nH]1 | – | – | – | – | – | – | – | – | – | – | – | – | 50 | – | 37 | – |
| CCCC/C=C/Cc1[nH]c2ccccc2c(=O)c1C | 37.7 | 50 (≈ 196 µM) | 17.1 | 63.9 | 50.9 | 34.4 | 82.8 | > 50 | > 50 | 70.8 | 10 (≈ 39.2 µM) | > 50 | – | – | – | – |
| CCCCNC(=O)n1c(NC(=O)OC)nc2ccccc21 [BENOMYL] | – | – | – | – | – | – | – | – | – | – | – | – | 33 | 76 | 77 | inhibition of growth at 100 µM [19]: 100% |
| O=C1C2CC=CCC2C(=O)N1SC(Cl)(Cl)Cl (stereo unspecified) [CAPTAN] | – | – | – | – | – | – | – | – | – | – | – | – | – | – | 100 | – |
